Read-outs that look alike come from different tables or passages of the source.
Columns and labels:
IGF-1R = biological target: T1, IGF-1R (Homo sapiens, UniProt P08069); experiment: In vitro IGF-1R enzymatic assay (ADP-Glo kinase assay); assay type: biochemical; conditions: activated IGF-1R, 30 nM, average; for inhibition at 0.03 µM: read-out: % Inh @ 30 nM Avg
T1 construct: purchased Millipore 14-802
Method: (§1) IC50 values of the compounds of the invention against IGF-1R and IR were measured in vitro using an ADP-Glo kinase assay Kit (Promega). […] Kinase reactions in both assays were conducted at 30° C. for 20 min with increasing concentrations of compounds of the invention.
Additional compounds of the invention were screened against activated IGF-1R.

[1] = tested on: Akt phosphorylation induced by IGF-1R; experiment: Western blot analysis of Akt phosphorylation induced by IGF-1 in HT-29 cells; assay type: cell-based, Human; conditions: for Levels of phosphorylated AKT in treated cells (pAKT/actin): HT-29 cells, IGF-1; for p-AKT relative to levels with 0.1 nM compound: Table B2 lower part; for Normalized phosphorylated AKT (relative to actin) levels relative to 0.1 nM compound treatment: Table B2 upper part
Method: Inhibition of Akt phosphorylation induced by IGF-1R was studied by western blot analysis. Human colon carcinoma HT-29 cells were seeded at a density of 8×10^4 cells/well in a 24-well plate and grown in DME/F12 media containing 10% FBS for 24 h. The cells were then depleted of serum by incubation in DME/F12 media lacking FBS for 24 h. […] […] Lysed cells were centrifuged at 13,000 rpm for 15 min and the protein concentration soluble fraction (supernatant) of each sample was determined using a BCA protein assay (Pierce).

IR = biological target: T2, IR (Homo sapiens, UniProt P06213); experiment: In vitro IR enzymatic assay (ADP-Glo kinase assay); assay type: biochemical; conditions: activated IR, 30 nM; for % Inh @ 30 nM (N1) / % Inh @ 30 nM (N2): 0.03 µM
T2 construct: purchased Millipore 14-803
T2 sequence (P06213 28-1382): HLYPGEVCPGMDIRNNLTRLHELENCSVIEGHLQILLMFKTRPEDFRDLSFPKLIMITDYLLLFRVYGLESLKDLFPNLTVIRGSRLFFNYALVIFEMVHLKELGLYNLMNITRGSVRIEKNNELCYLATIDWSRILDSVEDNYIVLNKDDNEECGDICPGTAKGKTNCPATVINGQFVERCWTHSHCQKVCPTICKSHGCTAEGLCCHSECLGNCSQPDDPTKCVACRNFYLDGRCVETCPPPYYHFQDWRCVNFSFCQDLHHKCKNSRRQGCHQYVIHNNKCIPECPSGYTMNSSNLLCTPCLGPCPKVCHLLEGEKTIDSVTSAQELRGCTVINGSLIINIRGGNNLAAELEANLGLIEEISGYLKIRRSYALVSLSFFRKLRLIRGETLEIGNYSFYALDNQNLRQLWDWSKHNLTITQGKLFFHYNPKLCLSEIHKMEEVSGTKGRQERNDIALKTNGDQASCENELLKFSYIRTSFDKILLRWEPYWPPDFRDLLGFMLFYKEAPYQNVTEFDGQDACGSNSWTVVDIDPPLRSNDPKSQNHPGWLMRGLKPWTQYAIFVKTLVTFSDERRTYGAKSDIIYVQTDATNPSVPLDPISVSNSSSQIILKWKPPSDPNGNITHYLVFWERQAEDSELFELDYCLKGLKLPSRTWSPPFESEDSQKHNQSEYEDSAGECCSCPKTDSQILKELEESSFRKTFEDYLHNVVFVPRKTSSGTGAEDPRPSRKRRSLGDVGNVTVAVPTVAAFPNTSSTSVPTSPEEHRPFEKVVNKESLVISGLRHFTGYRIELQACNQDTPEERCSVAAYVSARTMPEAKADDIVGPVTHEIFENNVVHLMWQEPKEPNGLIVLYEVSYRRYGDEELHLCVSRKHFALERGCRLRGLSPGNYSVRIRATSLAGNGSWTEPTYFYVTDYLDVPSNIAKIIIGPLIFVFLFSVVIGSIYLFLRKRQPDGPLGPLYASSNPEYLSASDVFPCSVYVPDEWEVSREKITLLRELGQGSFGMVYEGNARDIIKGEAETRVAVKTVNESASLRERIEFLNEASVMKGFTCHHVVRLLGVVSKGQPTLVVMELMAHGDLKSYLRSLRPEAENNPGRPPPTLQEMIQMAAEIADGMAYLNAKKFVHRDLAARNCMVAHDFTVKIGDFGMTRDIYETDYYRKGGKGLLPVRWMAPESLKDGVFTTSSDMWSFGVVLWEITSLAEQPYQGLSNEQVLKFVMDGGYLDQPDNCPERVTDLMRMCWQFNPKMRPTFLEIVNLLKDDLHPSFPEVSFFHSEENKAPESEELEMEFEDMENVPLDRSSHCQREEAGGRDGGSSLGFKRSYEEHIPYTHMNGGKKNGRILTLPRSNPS
Method: as §1
Additional compounds of the invention were screened against activated IR.

T1 sequence (P08069 31-1367): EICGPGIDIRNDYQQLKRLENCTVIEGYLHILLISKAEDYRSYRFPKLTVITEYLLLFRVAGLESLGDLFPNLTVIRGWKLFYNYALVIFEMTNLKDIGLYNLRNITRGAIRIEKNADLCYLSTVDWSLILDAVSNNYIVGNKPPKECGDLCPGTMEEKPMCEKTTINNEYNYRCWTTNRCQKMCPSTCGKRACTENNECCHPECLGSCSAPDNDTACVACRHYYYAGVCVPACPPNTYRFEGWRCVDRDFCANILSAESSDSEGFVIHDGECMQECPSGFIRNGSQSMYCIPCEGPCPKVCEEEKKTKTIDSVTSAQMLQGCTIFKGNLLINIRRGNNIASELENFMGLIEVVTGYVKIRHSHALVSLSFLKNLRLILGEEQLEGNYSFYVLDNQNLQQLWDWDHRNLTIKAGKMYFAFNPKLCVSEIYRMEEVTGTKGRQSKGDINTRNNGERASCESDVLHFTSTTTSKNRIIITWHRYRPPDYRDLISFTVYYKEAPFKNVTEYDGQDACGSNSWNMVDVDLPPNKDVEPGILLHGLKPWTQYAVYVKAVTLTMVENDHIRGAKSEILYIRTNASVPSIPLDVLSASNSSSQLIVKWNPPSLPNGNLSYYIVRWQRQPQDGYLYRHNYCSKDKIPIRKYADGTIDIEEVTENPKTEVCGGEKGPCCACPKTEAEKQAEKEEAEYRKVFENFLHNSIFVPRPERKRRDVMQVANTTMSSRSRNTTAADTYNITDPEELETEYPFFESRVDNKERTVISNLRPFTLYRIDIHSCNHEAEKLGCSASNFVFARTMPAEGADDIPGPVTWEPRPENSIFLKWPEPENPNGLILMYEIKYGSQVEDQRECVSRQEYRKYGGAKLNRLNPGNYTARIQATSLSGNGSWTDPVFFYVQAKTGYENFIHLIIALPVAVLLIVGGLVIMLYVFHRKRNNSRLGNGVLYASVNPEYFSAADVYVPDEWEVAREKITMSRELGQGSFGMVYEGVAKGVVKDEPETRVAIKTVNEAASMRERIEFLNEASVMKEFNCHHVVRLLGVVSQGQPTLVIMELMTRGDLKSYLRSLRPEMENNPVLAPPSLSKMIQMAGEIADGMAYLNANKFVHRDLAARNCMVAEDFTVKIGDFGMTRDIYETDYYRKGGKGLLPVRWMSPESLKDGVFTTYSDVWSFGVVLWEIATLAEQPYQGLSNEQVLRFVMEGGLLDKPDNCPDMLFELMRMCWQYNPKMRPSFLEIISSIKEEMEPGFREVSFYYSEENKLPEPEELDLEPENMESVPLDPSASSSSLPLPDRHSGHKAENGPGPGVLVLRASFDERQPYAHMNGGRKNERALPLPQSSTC

Row | Structure (SMILES) | % Inh @ 30 nM Avg (IGF-1R) | Levels of phosphorylated AKT in treated cells (pAKT/actin) ([1]; 0.1 nM compound) | p-AKT relative to levels with 0.1 nM compound ([1]; 0.1 nM) | Normalized phosphorylated AKT (relative to actin) levels relative to 0.1 nM compound treatment ([1]; 0.1 nM) | Levels of phosphorylated AKT in treated cells (pAKT/actin) ([1]; 1 nM compound) | p-AKT relative to levels with 0.1 nM compound ([1]; 1 nM) | Normalized phosphorylated AKT (relative to actin) levels relative to 0.1 nM compound treatment ([1]; 1 nM) | Levels of phosphorylated AKT in treated cells (pAKT/actin) ([1]; 10 nM compound) | p-AKT relative to levels with 0.1 nM compound ([1]; 10 nM) | Normalized phosphorylated AKT (relative to actin) levels relative to 0.1 nM compound treatment ([1]; 10 nM) | Levels of phosphorylated AKT in treated cells (pAKT/actin) ([1]; 100 nM compound) | p-AKT relative to levels with 0.1 nM compound ([1]; 100 nM) | Normalized phosphorylated AKT (relative to actin) levels relative to 0.1 nM compound treatment ([1]; 100 nM) | % Inh @ 30 nM (N1) (IR; N1) | % Inh @ 30 nM (N2) (IR; N2) | % Inh @ 30 nM Avg (IR; average) | inhibition at 0.03 µM (IR; N1, read-out: % Inh @ 30 nM (N1)) | inhibition at 0.03 µM (IR; N2, read-out: % Inh @ 30 nM (N2)) | inhibition at 0.03 µM (IR; average, read-out: % Inh @ 30 nM Avg) | inhibition at 0.03 µM (IGF-1R)
1 | O=C(Nc1ccc(F)nc1)C1CC(O)CN1c1nc2c(c(Nc3cc(C4CC4)[nH]n3)n1)CCC2 (racemic) [Compound 10b, 1-(4-(5-cyclopropyl-1H-pyrazol-3-ylamino)-6,7-dihydro-5H-cyclopenta[d]pyrimidin-2-yl)-N-(6-fluoropyridin-3-yl)-4-hydroxypyrrolidine-2-carboxamide] | −11% | 2.21 | 1.0 | 1.0 | 2.75 | 1.2 | 1.2 | 1.71 | 0.8 | 0.8 | 1.66 | 0.8 | 0.8 |  |  |  |  |  |  | 
2 | O=C(Nc1ccc(F)nc1)C1CC(O)CN1c1nc2c(c(Nc3cc(C4CC4)[nH]n3)n1)CCC2 (racemic) [Compound 10c, 1-(4-(5-cyclopropyl-1H-pyrazol-3-ylamino)-6,7-dihydro-5H-cyclopenta[d]pyrimidin-2-yl)-N-(6-fluoropyridin-3-yl)-4-hydroxypyrrolidine-2-carboxamide] | 15% |  |  |  |  |  |  |  |  |  |  |  |  |  |  |  |  |  |  | 
3 | O=C(Nc1ccc(F)nc1)[C@H]1[C@@H](O)CCN1c1nc2c(c(Nc3cc(C4CC4)[nH]n3)n1)CCC2 (single isomer, unassigned) [Compound 11a] |  | 1.83 | 1.0 | 1.0 | 1.55 | 0.8 | 0.8 | 1.43 | 0.8 | 0.8 | 1.58 | 0.9 | 0.9 | −17% | −9% | −13% |  |  |  | 
4 | CC(C)c1cc(Nc2nc(N3CCC[C@@H]3C(=O)Nc3ccc(F)nc3)nc3c2CCC3)on1 (single isomer, unassigned) [Compound 12a] |  | 4.17 | 1.0 | 1.0 | 3.33 | 0.8 | 0.8 | 2.91 | 0.7 | 0.7 | 4.16 | 1.0 | 1.0 |  |  |  | 10% | 8% | 9% | 
5 | O=C(Nc1ccc(F)nc1)C1CCCN1c1nc2c(c(Nc3cc(C4CC4)[nH]n3)n1)CCCC2 (single isomer, unassigned) [Compound 14a, 1-(4-(5-cyclopropyl-1H-pyrazol-3-ylamino)-5,6,7,8-tetrahydroquinazolin-2-yl)-N-(6-fluoropyridin-3-yl)pyrrolidine-2-carboxamide] |  | 0.73 | 1.0 | 1.0 | 0.51 | 0.7 | 0.7 | 0.43 | 0.6 | 0.6 | 0.35 | 0.5 | 0.5 |  |  |  |  |  |  | 
6 | O=C(Nc1ccc(F)nc1)C1CCCN1c1nc2c(c(Nc3cc(C4CC4)[nH]n3)n1)CCCC2 (single isomer, unassigned) [Compound 14b, 1-(4-(5-cyclopropyl-1H-pyrazol-3-ylamino)-5,6,7,8-tetrahydroquinazolin-2-yl)-N-(6-fluoropyridin-3-yl)pyrrolidine-2-carboxamide] |  | 0.51 | 1.0 | 1.0 | 0.49 | 0.9 | 0.9 | 0.02 | 0.0 | 0.0 | 0.00 | 0.0 | 0.0 |  |  |  |  |  |  | 
7 | O=C(Nc1ccc(F)nc1)C1CCCN1c1nc2c(c(Nc3cc(C4CCCC4)[nH]n3)n1)CCCC2 (single isomer, unassigned) [Compound 15a, 1-(4-(5-cyclopentyl-1H-pyrazol-3-ylamino)-5,6,7,8-tetrahydroquinazolin-2-yl)-N-(6-fluoropyridin-3-yl)pyrrolidine-2-carboxamide] |  | 0.70 | 1.0 | 1.0 | 0.89 | 1.3 | 1.3 | 0.92 | 1.3 | 1.3 | 0.59 | 0.8 | 0.8 | −2% | 4% | 1% |  |  |  | 
8 | O=C(Nc1ccc(F)nc1)C1CCCCN1c1nc2c(c(Nc3cc(C4CCCC4)[nH]n3)n1)CCC2 (single isomer, unassigned) [Compound 17a, 1-(4-(5-cyclopentyl-1H-pyrazol-3-ylamino)-6,7-dihydro-5H-cyclopenta[d]pyrimidin-2-yl)-N-(6-fluoropyridin-3-yl)piperidine-2-carboxamide] |  | 0.89 | 1.0 | 1.0 | 1.22 | 1.4 | 1.4 | 1.01 | 1.1 | 1.1 | 1.08 | 1.2 | 1.2 |  |  |  |  |  |  | 
9 | COC1CC(C(=O)Nc2ccc(F)nc2)N(c2nc3c(c(Nc4cc(C5CC5)[nH]n4)n2)CCC3)C1 (single isomer, unassigned) [Compound 21a, 1-(4-(5-cyclopropyl-1H-pyrazol-3-ylamino)-6,7-dihydro-5H-cyclopenta[d]pyrimidin-2-yl)-N-(6-fluoropyridin-3-yl)-4-methoxypyrrolidine-2-carboxamide] |  |  |  |  |  |  |  |  |  |  |  |  |  |  |  |  |  |  |  | 14%
10 | COC1CC(C(=O)Nc2ccc(F)nc2)N(c2nc3c(c(Nc4cc(C5CC5)[nH]n4)n2)CCC3)C1 (single isomer, unassigned) [Compound 21b, 1-(4-(5-cyclopropyl-1H-pyrazol-3-ylamino)-6,7-dihydro-5H-cyclopenta[d]pyrimidin-2-yl)-N-(6-fluoropyridin-3-yl)-4-methoxypyrrolidine-2-carboxamide] |  |  |  |  |  |  |  |  |  |  |  |  |  |  |  |  |  |  |  | 41%
11 | CC1(O)CC(c2nc(-c3ccc4ccc(-c5ccccc5)nc4c3)c3c(N)nccn23)C1 (centres unmarked) [OSI-906, 3-[8-Amino-1-(2-phenyl-7-quinolyl)imidazo[1,5-a]pyrazin-3-yl]-1-methyl-cyclobutanol, reference compound] |  | 1.06 |  |  | 0.85 |  |  | 1.58 |  |  | 0.40 |  |  |  |  |  |  |  |  | 
